Measured values reported in patent publication US20110039721A1, “METHOD FOR PREDICTION ABOUT CARCINOGENICITY OF SUBSTANCE IN RODENT” (Chemicals Evaluation and Research Institute, priority 2007, published 2011).

Columns and labels:
[1] = tested on: mRNA expressed from the genes (A) to (D) in rat liver; assay: Behavior of genes (mRNA expression level, oligo-DNA microarray) in rat liver after 28-day oral administration; assay type: in vivo
Procedure, shortened: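 Liver mRNA measured by oligo-DNA microarray after 28 days of once-daily oral gavage in 5-week-old male F344 rats (n=4 per group), with vehicle controls given equal solvent volume. Significance threshold: 1.5-fold up or down versus control, with changes opposite in direction to other carcinogens counted as not significant.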

rodent = conditions: in vivo; cited from earlier work
liver = conditions: in vivo; cited from earlier work
[2] = (C), Unigene Rn.120914, defined direction +, rat liver, oral once daily 28 days
[3] = gene group (A), Unigene No. Rn.167075
[4] = gene group (C), Unigene No. Rn.120914

## CCOC(N)=O [TS054, Urethane]
[1]; (A), Unigene Rn.144554, defined direction +, rat liver, oral once daily 28 days
  Behavior of gene caused by administration of chemical substance, Gene No. 4846: +
[1]; (A), Unigene Rn.167075, defined direction +, rat liver, oral once daily 28 days, significant = 1.5 times or more or 1/1.5 or less of control
  Behavior of gene caused by administration of chemical substance, Gene No. 4218: −
[1]; (A), Unigene Rn.167075, defined direction −, rat liver, oral once daily 28 days
  Behavior of gene caused by administration of chemical substance, Gene No. 2026: −
[1]; (A), Unigene Rn.5834, defined direction +, rat liver, oral once daily 28 days
  Behavior of gene caused by administration of chemical substance, Gene No. 6182: +
[1]; (A), Unigene Rn.9836, defined direction +, rat liver, oral once daily 28 days
  Behavior of gene caused by administration of chemical substance, Gene No. 5600: −
[1]; (B), Unigene Rn.1430, defined direction −, rat liver, oral once daily 28 days
  Behavior of gene caused by administration of chemical substance, Gene No. 1494: −
[1]; (B), Unigene Rn.19329, defined direction +, rat liver, oral once daily 28 days
  Behavior of gene caused by administration of chemical substance, Gene No. 2045: −
[1]; (B), Unigene Rn.21240, defined direction +, rat liver, oral once daily 28 days
  Behavior of gene caused by administration of chemical substance, Gene No. 2203: −
[1]; (C), Unigene Rn.106184, defined direction +, rat liver, oral once daily 28 days
  Behavior of gene caused by administration of chemical substance, Gene No. 533: −
[1]; (C), Unigene Rn.108075, defined direction −, rat liver, oral once daily 28 days
  Behavior of gene caused by administration of chemical substance, Gene No. 725: −
[1]; (C), Unigene Rn.11766, defined direction +, rat liver, oral once daily 28 days
  Behavior of gene caused by administration of chemical substance, Gene No. 1163: −
[1]; (C), Unigene Rn.118529, defined direction −, rat liver, oral once daily 28 days
  Behavior of gene caused by administration of chemical substance, Gene No. 4973: −
[1]; (C), Unigene Rn.119024, defined direction −, rat liver, oral once daily 28 days
  Behavior of gene caused by administration of chemical substance, Gene No. 4095: −
[1]; [2]
  Behavior of gene caused by administration of chemical substance, Gene No. 1334: −
  Behavior of gene caused by administration of chemical substance, Gene No. 6620: −
[1]; (C), Unigene Rn.123063, defined direction −, rat liver, oral once daily 28 days
  Behavior of gene caused by administration of chemical substance, Gene No. 6303: −
[1]; (C), Unigene Rn.143213, defined direction −, rat liver, oral once daily 28 days
  Behavior of gene caused by administration of chemical substance, Gene No. 5878: −
[1]; (C), Unigene Rn.144946, defined direction −, rat liver, oral once daily 28 days
  Behavior of gene caused by administration of chemical substance, Gene No. 1131: −
[1]; (C), Unigene Rn.14744, defined direction −, rat liver, oral once daily 28 days
  Behavior of gene caused by administration of chemical substance, Gene No. 1562: −
[1]; (C), Unigene Rn.1647, defined direction −, rat liver, oral once daily 28 days
  Behavior of gene caused by administration of chemical substance, Gene No. 1741: −
[1]; (C), Unigene Rn.164817, defined direction +, rat liver, oral once daily 28 days
  Behavior of gene caused by administration of chemical substance, Gene No. 893: −
[1]; (C), Unigene Rn.167685, defined direction −, rat liver, oral once daily 28 days
  Behavior of gene caused by administration of chemical substance, Gene No. 6026: −
[1]; (C), Unigene Rn.185941, defined direction −, rat liver, oral once daily 28 days
  Behavior of gene caused by administration of chemical substance, Gene No. 154: −
[1]; (C), Unigene Rn.18728, defined direction −, rat liver, oral once daily 28 days
  Behavior of gene caused by administration of chemical substance, Gene No. 1993: −
[1]; (C), Unigene Rn.201760, defined direction +, rat liver, oral once daily 28 days
  Behavior of gene caused by administration of chemical substance, Gene No. 813: −
[1]; (C), Unigene Rn.23969, defined direction +, rat liver, oral once daily 28 days
  Behavior of gene caused by administration of chemical substance, Gene No. 2494: −
[1]; (C), Unigene Rn.24561, defined direction −, rat liver, oral once daily 28 days
  Behavior of gene caused by administration of chemical substance, Gene No. 2546: −
[1]; (C), Unigene Rn.43232, defined direction −, rat liver, oral once daily 28 days
  Behavior of gene caused by administration of chemical substance, Gene No. 3776: −
[1]; (C), Unigene Rn.4620, defined direction +, rat liver, oral once daily 28 days
  Behavior of gene caused by administration of chemical substance, Gene No. 3929: −
[1]; (C), Unigene Rn.9757, defined direction +, rat liver, oral once daily 28 days
  Behavior of gene caused by administration of chemical substance, Gene No. 1119: −
[1]; (C), Unigene Rn.9779, defined direction +, rat liver, oral once daily 28 days
  Behavior of gene caused by administration of chemical substance, Gene No. 6742: −
[1]; (C), Unigene Rn.9862, defined direction −, rat liver, oral once daily 28 days
  Behavior of gene caused by administration of chemical substance, Gene No. 5634: −
[1]; (D), Unigene Rn.9939, defined direction −, rat liver, oral once daily 28 days
  Behavior of gene caused by administration of chemical substance, Gene No. 5726: +
rodent
  Carcinogenicity: C+
liver
  Liver carcinogenicity: Cr+

## Cl[C@H]1[C@H](Cl)[C@@H](Cl)[C@@H](Cl)[C@H](Cl)[C@H]1Cl [TS057, Lindane]
[1]; rat, in vivo
  Behavior of gene caused by administration of chemical substance, Gene No. 154: −
  Behavior of gene caused by administration of chemical substance, Gene No. 533: +
  Behavior of gene caused by administration of chemical substance, Gene No. 725: −
  Behavior of gene caused by administration of chemical substance, Gene No. 813: −
  Behavior of gene caused by administration of chemical substance, Gene No. 893: −
  Behavior of gene caused by administration of chemical substance, Gene No. 1119: −
  Behavior of gene caused by administration of chemical substance, Gene No. 1131: +
  Behavior of gene caused by administration of chemical substance, Gene No. 1163: −
  Behavior of gene caused by administration of chemical substance, Gene No. 1334: −
  Behavior of gene caused by administration of chemical substance, Gene No. 1494: −
  Behavior of gene caused by administration of chemical substance, Gene No. 1562: −
  Behavior of gene caused by administration of chemical substance, Gene No. 1741: −
  Behavior of gene caused by administration of chemical substance, Gene No. 1993: −
  Behavior of gene caused by administration of chemical substance, Gene No. 2026: −
  Behavior of gene caused by administration of chemical substance, Gene No. 2045: −
  Behavior of gene caused by administration of chemical substance, Gene No. 2203: −
  Behavior of gene caused by administration of chemical substance, Gene No. 2494: −
  Behavior of gene caused by administration of chemical substance, Gene No. 2546: −
  Behavior of gene caused by administration of chemical substance, Gene No. 3776: −
  Behavior of gene caused by administration of chemical substance, Gene No. 3929: −
  Behavior of gene caused by administration of chemical substance, Gene No. 4095: −
  Behavior of gene caused by administration of chemical substance, Gene No. 4218: −
  Behavior of gene caused by administration of chemical substance, Gene No. 4846: −
  Behavior of gene caused by administration of chemical substance, Gene No. 4973: −
  Behavior of gene caused by administration of chemical substance, Gene No. 5600: −
  Behavior of gene caused by administration of chemical substance, Gene No. 5634: −
  Behavior of gene caused by administration of chemical substance, Gene No. 5726: −
  Behavior of gene caused by administration of chemical substance, Gene No. 5878: −
  Behavior of gene caused by administration of chemical substance, Gene No. 6026: +
  Behavior of gene caused by administration of chemical substance, Gene No. 6182: −
  Behavior of gene caused by administration of chemical substance, Gene No. 6303: +
  Behavior of gene caused by administration of chemical substance, Gene No. 6620: −
  Behavior of gene caused by administration of chemical substance, Gene No. 6742: −
rodent
  Carcinogenicity: C−
liver
  Liver carcinogenicity: Cr−

## Nc1ccc(N)c(Cl)c1.O=S(=O)(O)O [TS058, 2-Chloro-p-phenylenediamine SO4]
[1]; gene group (A), Unigene No. Rn.144554
  Behavior of gene caused by administration of chemical substance, Gene No. 4846: −
[1]; [3]
  Behavior of gene caused by administration of chemical substance, Gene No. 2026: −
  Behavior of gene caused by administration of chemical substance, Gene No. 4218: −
[1]; gene group (A), Unigene No. Rn.5834
  Behavior of gene caused by administration of chemical substance, Gene No. 6182: −
[1]; gene group (A), Unigene No. Rn.9836
  Behavior of gene caused by administration of chemical substance, Gene No. 5600: −
[1]; gene group (B), Unigene No. Rn.1430
  Behavior of gene caused by administration of chemical substance, Gene No. 1494: −
[1]; gene group (B), Unigene No. Rn.19329
  Behavior of gene caused by administration of chemical substance, Gene No. 2045: +
[1]; gene group (B), Unigene No. Rn.21240
  Behavior of gene caused by administration of chemical substance, Gene No. 2203: −
[1]; gene group (C), Unigene No. Rn.106184
  Behavior of gene caused by administration of chemical substance, Gene No. 533: −
[1]; gene group (C), Unigene No. Rn.108075
  Behavior of gene caused by administration of chemical substance, Gene No. 725: −
[1]; gene group (C), Unigene No. Rn.11766
  Behavior of gene caused by administration of chemical substance, Gene No. 1163: +
[1]; gene group (C), Unigene No. Rn.118529
  Behavior of gene caused by administration of chemical substance, Gene No. 4973: −
[1]; gene group (C), Unigene No. Rn.119024
  Behavior of gene caused by administration of chemical substance, Gene No. 4095: −
[1]; [4]
  Behavior of gene caused by administration of chemical substance, Gene No. 1334: −
  Behavior of gene caused by administration of chemical substance, Gene No. 6620: −
[1]; gene group (C), Unigene No. Rn.123063
  Behavior of gene caused by administration of chemical substance, Gene No. 6303: −
[1]; gene group (C), Unigene No. Rn.143213
  Behavior of gene caused by administration of chemical substance, Gene No. 5878: −
[1]; gene group (C), Unigene No. Rn.144946
  Behavior of gene caused by administration of chemical substance, Gene No. 1131: −
[1]; gene group (C), Unigene No. Rn.14744
  Behavior of gene caused by administration of chemical substance, Gene No. 1562: −
[1]; gene group (C), Unigene No. Rn.1647
  Behavior of gene caused by administration of chemical substance, Gene No. 1741: −
[1]; gene group (C), Unigene No. Rn.164817
  Behavior of gene caused by administration of chemical substance, Gene No. 893: −
[1]; gene group (C), Unigene No. Rn.167685
  Behavior of gene caused by administration of chemical substance, Gene No. 6026: −
[1]; gene group (C), Unigene No. Rn.185941
  Behavior of gene caused by administration of chemical substance, Gene No. 154: +
[1]; gene group (C), Unigene No. Rn.18728
  Behavior of gene caused by administration of chemical substance, Gene No. 1993: −
[1]; gene group (C), Unigene No. Rn.201760
  Behavior of gene caused by administration of chemical substance, Gene No. 813: −
[1]; gene group (C), Unigene No. Rn.23969
  Behavior of gene caused by administration of chemical substance, Gene No. 2494: +
[1]; gene group (C), Unigene No. Rn.24561
  Behavior of gene caused by administration of chemical substance, Gene No. 2546: +
[1]; gene group (C), Unigene No. Rn.43232
  Behavior of gene caused by administration of chemical substance, Gene No. 3776: −
[1]; gene group (C), Unigene No. Rn.4620
  Behavior of gene caused by administration of chemical substance, Gene No. 3929: −
[1]; gene group (C), Unigene No. Rn.9757
  Behavior of gene caused by administration of chemical substance, Gene No. 1119: +
[1]; gene group (C), Unigene No. Rn.9779
  Behavior of gene caused by administration of chemical substance, Gene No. 6742: −
[1]; gene group (C), Unigene No. Rn.9862
  Behavior of gene caused by administration of chemical substance, Gene No. 5634: +
[1]; gene group (D), Unigene No. Rn.9939
  Behavior of gene caused by administration of chemical substance, Gene No. 5726: −
rodent
  Carcinogenicity: C−
liver
  Liver carcinogenicity: Cr−
